From US20140121240A1, “NOVEL PHARMACEUTICAL COMPOSITION” (MARUHO CO., LTD., priority 2011, published 2014)
Marks after values point to notes of the source that are not given here.

Experiments:
[1] = system: oxazolone-induced inflammatory reactions of right ear auricle; experiment: Chronic oxazolone-induced dermatitis model: ear auricle thickness (Experiment 4); format: in vivo, mouse; conditions: Compound A 1%, Tacrolimus 0.1%, Dexamethasone 0.01% w/v in 0.25% oxazolone
Procedure: (§1) [Antipruritic Effect of Test Compound in Chronic Oxazolone-Induced Dermatitis Model]
(§2) A magnet for measurement was implanted into an instep part of right hindlimb of BALB/c male mouse (fed for one week from five-week old; Charles River Laboratories, Japan Inc.) under anesthesia, and on the same day, sensitization was carried out by topically administering 0.5% w/v solution (10 μL) of oxazolone in acetone respectively onto the both sides of right ear auricle of the animal (sensitization day). On each point of the 7th, 9th, 11th, 14th and 16th day reckoned from the day after the sensitization (1st day), each mouse was challenged by topical administration of a 10 μL solution of test compound [acetone (vehicle-treated group), 0.25% w/v solution of oxazolone in acetone (oxazolone-treated group), or a test compound solubilized in 0.25% w/v oxazolone solution in acetone (test compound-treated group)] onto the both sides of right ear auricle of the animal to produce inflammatory reactions. Immediately after the administration, scratching behavior (counts of scratching) was measured for two hours by MicroAct. Thickness of right ear auricle of each mouse was measured by a thickness gauge before and 24 hours after the topical administration of each test compound solution. The percentage described in the Table means “% w/v”.

[2] = system: oxazolone-induced scratching behavior; experiment: Chronic oxazolone-induced dermatitis model: scratching behavior (Experiment 4); format: in vivo, mouse; conditions: Compound A 1%, Tacrolimus 0.1%, Dexamethasone 0.01% w/v in 0.25% oxazolone
Procedure: as §1, §2

[3] = system: histamine-induced scratching behavior; experiment: Antipruritic effect in histamine-induced scratching model (Experiment 2); format: in vivo, mouse; conditions: for Antipruritic activity (ratio of inhibition rate on scratching behavior to that of Compound A): 3% w/v in acetone 50 μL topical 1 h before histamine 300 nmol/50 μL, ICR female mice, counts for 30 minutes; for antipruritic effect in histamine-induced scratching model, result in words: 3% w/v topical, histamine 300 nmol/50 μL
Procedure: [Antipruritic Effect of Test Compound in Histamine-Induced Scratching Model]
After topical administration of a 3% w/v solution of a test compound or a reference compound as described in the following Table 6 in acetone (50 μL) or a vehicle (acetone; 50 μL) onto right dorsal neck of ICR female mice similarly pre-treated as described in Experiment 1, these animals were placed into a testing apparatus (MicroAct). After one hour of the administration of said compound solution or vehicle, a solution (50 μL) of histamine in saline (300 nmol/50 μL) or saline (50 μL) was intradermally administered to right dorsal neck of each mouse. Immediately after the administration, scratching behavior (counts of scratching) was measured for 30 minutes by MicroAct.
Inhibition rate on scratching behavior of each test compound was evaluated in terms of the following formula based on the counts of scratching in the test group in which each test compound solution was administered followed by administration of a histamine solution in saline (counts of scratching in compound-treated group), and the counts of scratching in the test group in which a vehicle (acetone) was administered followed by administration of a histamine solution in saline (counts of scratching in vehicle-treated group).
(§3) Ratio of inhibition rate on scratching behavior of each test compound to that of Compound A was calculated as antipruritic activity (%). For reference, PDE4 inhibitory activity of each compound (IC50) which was measured by a conventional manner is also shown in such Table.

PDE4 = PDE4 inhibitory activity measured by a conventional manner; format: biochemical
Procedure: as §3

[4] = system: histamine-induced scratching behavior; experiment: Antipruritic activity in histamine-induced scratching model, dose response (Experiment 3 (1)); format: in vivo, mouse
Procedure: (1) [Antipruritic Activity of Test Compound in Histamine-Induced Scratching Model]
After topical administration of a solution (50 μL) of test compound (0.3 to 3% w/v solution of Compound A in acetone, or 0.03 to 0.3% w/v solution of cipamfylline in acetone), or a vehicle (acetone; 50 μL) onto right dorsal neck of ICR female mice similarly pre-treated as described in Experiment 1, these animals were placed into a testing apparatus (MicroAct). After one hour of the administration of said test compound solution or vehicle, a solution (50 μL) of histamine in saline (300 nmol/50 μL) or saline (50 μL; control group) was intradermally administered to right dorsal neck of each mouse. Immediately after the administration, scratching behavior (counts of scratching) was measured for 30 minutes by the testing apparatus (MicroAct).

[5] = system: spontaneous locomotor activity; experiment: Effect on spontaneous locomotor activity (Experiment 3 (2)); format: in vivo, mouse; conditions: for Spontaneous locomotor activity (Mean): measured from 1 h after administration
Procedure: (2) [Effect of Test Compound on Spontaneous Locomotor Activity] The same solution (50 μL) of test compound or a vehicle (50 μL) as described in the above-mentioned (1) was administered onto right dorsal neck of ICR female mice similarly pre-treated as described in Experiment 1. After one hour of the administration of the test compound solution or vehicle, these animals were placed into an apparatus for measuring spontaneous locomotor activity (SCANET, Melquest Ltd.), and their locomotor activity was measured for 30 minutes.

[6] = sensitization day, BALB/c male mouse

## C[C@@H]1C[C@H]2[C@@H]3CCC4=CC(=O)C=C[C@]4(C)[C@@]3(F)[C@@H](O)C[C@]2(C)[C@@]1(O)C(=O)CO [Dexamethasone]
[1]; 7th day
  Ear auricle thickness (Mean): 0.35 mm
[1]; 8th day
  Ear auricle thickness (Mean): 0.46** mm
[1]; 9th day
  Ear auricle thickness (Mean): 0.40** mm
[1]; 10th day
  Ear auricle thickness (Mean): 0.45** mm
[1]; 11th day
  Ear auricle thickness (Mean): 0.43** mm
[1]; 12th day
  Ear auricle thickness (Mean): 0.54** mm
[1]; 14th day
  Ear auricle thickness (Mean): 0.49** mm
[1]; 15th day
  Ear auricle thickness (Mean): 0.55** mm
[1]; 16th day
  Ear auricle thickness (Mean): 0.54** mm
[1]; 17th day
  Ear auricle thickness (Mean): 0.64** mm
[1]; [6]
  Ear auricle thickness (Mean): 0.27 mm
[2]; 7th day, BALB/c male mouse
  Counts of scratching (Mean ± standard error): 1663 ± 144 (*) beats/2 hr.
[2]; 9th day
  Counts of scratching (Mean ± standard error): 1845 ± 442 beats/2 hr.
[2]; 11th day
  Counts of scratching (Mean ± standard error): 1274 ± 296 beats/2 hr.
[2]; 14th day
  Counts of scratching (Mean ± standard error): 1791 ± 354 beats/2 hr.
[2]; 16th day
  Counts of scratching (Mean ± standard error): 2211 ± 430 beats/2 hr.

## COc1cc2cc(CO)c(CO)c(-c3ccnc(-n4c(=O)cc(O)c5ccccc54)c3)c2cc1OC [Compound D]
[3]
  Antipruritic activity (ratio of inhibition rate on scratching behavior to that of Compound A): 80%
  antipruritic effect in histamine-induced scratching model, result in words: remarkable antipruritic effect
PDE4
  IC50: 2 nM

## COc1cc2cc(CO)c(CO)c(-c3ccnc(-n4c(=O)cc(OC)c5ccccc54)c3)c2cc1OC [Compound C]
[3]
  Antipruritic activity (ratio of inhibition rate on scratching behavior to that of Compound A): 116%
  antipruritic effect in histamine-induced scratching model, result in words: remarkable antipruritic effect
PDE4
  IC50: 2 nM

## COc1cc2cc(CO)c(CO)c(-c3ccnc(-n4ccc5c(CCc6cccnc6)cccc5c4=O)c3)c2cc1OC [Reference compound 3]
[3]
  Antipruritic activity (ratio of inhibition rate on scratching behavior to that of Compound A): −36%
  antipruritic effect in histamine-induced scratching model, result in words: very weak or was not observed
PDE4
  IC50: 0.1 nM

## Nc1nc2c([nH]1)c(=O)n(CC1CC1)c(=O)n2CC1CC1 [Cipamfylline, cipamfylline]
[4]; 0.03% w/v in acetone 50 μL topical 1 h before histamine 300 nmol/50 μL
  Counts of scratching (Mean): 579 beats/30 min.
[4]; 0.1% w/v in acetone 50 μL topical 1 h before histamine 300 nmol/50 μL
  Counts of scratching (Mean): 369 beats/30 min.
[4]; 0.3% w/v in acetone 50 μL topical 1 h before histamine 300 nmol/50 μL
  Counts of scratching (Mean): 130 beats/30 min.
[5]; 0.03% w/v in acetone 50 μL topical
  Spontaneous locomotor activity (Mean): 6760 counts/30 min.
[5]; 0.1% w/v in acetone 50 μL topical
  Spontaneous locomotor activity (Mean): 5308 counts/30 min.
[5]; 0.3% w/v in acetone 50 μL topical
  Spontaneous locomotor activity (Mean): 4924 counts/30 min.
[5]; Compound A 3% w/v, cipamfylline 0.3% w/v
  spontaneous locomotor activity lowering effect at a dose producing antipruritic effect, result in words: showed a significant spontaneous locomotor activity lowering effect

## C=CC[C@@H]1/C=C(\C)C[C@H](C)C[C@H](OC)[C@H]2O[C@@](O)(C(=O)C(=O)N3CCCC[C@H]3C(=O)O[C@H](/C(C)=C/[C@@H]3CC[C@@H](O)[C@H](OC)C3)[C@H](C)[C@@H](O)CC1=O)[C@H](C)C[C@@H]2OC [Tacrolimus]
[1]; 7th day
  Ear auricle thickness (Mean): 0.35 mm
[1]; 8th day
  Ear auricle thickness (Mean): 0.58 mm
[1]; 9th day
  Ear auricle thickness (Mean): 0.41** mm
[1]; 10th day
  Ear auricle thickness (Mean): 0.49** mm
[1]; 11th day
  Ear auricle thickness (Mean): 0.49** mm
[1]; 12th day
  Ear auricle thickness (Mean): 0.57** mm
[1]; 14th day
  Ear auricle thickness (Mean): 0.52** mm
[1]; 15th day
  Ear auricle thickness (Mean): 0.73** mm
[1]; 16th day
  Ear auricle thickness (Mean): 0.65** mm
[1]; 17th day
  Ear auricle thickness (Mean): 0.71** mm
[1]; [6]
  Ear auricle thickness (Mean): 0.27 mm
[2]; 7th day, BALB/c male mouse
  Counts of scratching (Mean ± standard error): 1130 ± 135 (**) beats/2 hr.
[2]; 9th day
  Counts of scratching (Mean ± standard error): 1655 ± 231 beats/2 hr.
[2]; 11th day
  Counts of scratching (Mean ± standard error): 990 ± 148 beats/2 hr.
[2]; 14th day
  Counts of scratching (Mean ± standard error): 1023 ± 148 (**) beats/2 hr.
[2]; 16th day
  Counts of scratching (Mean ± standard error): 2164 ± 324 beats/2 hr.

## COc1cc2cc(CO)c(CO)c(-c3ccnc(-n4ncc5ccccc5c4=O)c3)c2cc1OC [Compound B]
[3]
  Antipruritic activity (ratio of inhibition rate on scratching behavior to that of Compound A): 154%
  antipruritic effect in histamine-induced scratching model, result in words: remarkable antipruritic effect
PDE4
  IC50: 1 nM
